# Measurements as given in article PMC8346900 (Proceedings of the National Academy of Sciences of the …, 2021).
# “Also recorded” adds a separate entry of the source.
# What was measured:
# [1] = Body temperature recordings in mice; assay type: in vivo, mouse; conditions: C57/B6 mice, i.p.; GHB 275 mg/kg, HOCPCA 175 mg/kg
# [2] = molecular target: GABAB receptors; conditions: cited from earlier work
# [3] = molecular target: T1, CaMKIIα WT hub (Homo sapiens, UniProt Q9UQM7); assay: Thermal shift assay by differential scanning fluorimetry; assay type: binding; conditions: saturating concentrations, pH 6
# T1 sequence (Q9UQM7 345-475): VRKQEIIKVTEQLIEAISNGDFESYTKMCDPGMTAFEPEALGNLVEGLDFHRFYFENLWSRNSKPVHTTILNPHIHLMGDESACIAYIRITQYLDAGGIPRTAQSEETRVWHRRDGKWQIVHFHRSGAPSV
# [4] = molecular target: recombinant CaMKIIα (Homo sapiens, UniProt Q9UQM7); assay: ADP-Glo assay, syntide-II phosphorylation; assay type: biochemical; conditions: fixed concentration of CaM, wide concentration span
# Sequence of recombinant CaMKIIα (Q9UQM7 whole entry): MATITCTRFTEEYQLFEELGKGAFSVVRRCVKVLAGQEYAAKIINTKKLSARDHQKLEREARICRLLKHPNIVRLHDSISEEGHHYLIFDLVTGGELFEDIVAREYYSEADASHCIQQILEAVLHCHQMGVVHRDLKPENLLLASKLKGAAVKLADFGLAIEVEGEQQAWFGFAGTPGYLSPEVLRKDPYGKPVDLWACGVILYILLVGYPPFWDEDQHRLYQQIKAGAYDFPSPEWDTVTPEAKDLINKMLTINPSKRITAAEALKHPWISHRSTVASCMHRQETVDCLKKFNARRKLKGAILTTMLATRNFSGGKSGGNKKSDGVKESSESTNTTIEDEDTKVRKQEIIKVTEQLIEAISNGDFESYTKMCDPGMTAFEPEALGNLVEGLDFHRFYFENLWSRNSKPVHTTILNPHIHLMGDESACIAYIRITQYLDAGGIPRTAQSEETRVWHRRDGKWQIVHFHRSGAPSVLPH
# [5] = tested on: cortical neurons; assay: Glu/Gly excitotoxicity in cultured cortical neurons, LDH release; assay type: cell-based, mouse
# [6] = molecular target: T2, CaMKIIα wild-type (WT) hub protein (Homo sapiens, UniProt Q9UQM7); assay: Intrinsic tryptophan fluorescence; assay type: binding; conditions: increasing concentrations
# T2 sequence (Q9UQM7 345-475): T1 sequence (Q9UQM7 345-475)
# [7] = tested on: hippocampal neurons; assay: Glu excitotoxicity in cultured hippocampal neurons, live/dead staining; assay type: cell-based, mouse; conditions: for Cell survival after Glu: Camk2a-/- neurons
# [8] = tested on: mouse hippocampal slices (CA3–CA1); assay: Ex vivo LTP recordings in hippocampal slices; conditions: bath application, 100 μM, 100 Hz induction
# [9] = tested on: C57/B6 mice; assay: Photothrombotic stroke model of focal ischemia
# [10] = tested on: CaMKIIα Thr286 autophosphorylation; assay: Thr286 autophosphorylation by Western blot in cultured cortical neurons; assay type: cell-based, mouse; conditions: 1 h, HOCPCA 3 mM
# [11] = tested on: CaMKIIβ/γ/δ subtypes; CaMKIIα Δhub; assay type: binding, rat; conditions: heterologously expressed in HEK293T cells
# [12] = molecular target: CaMKIIβ/γ/δ subtypes; CaMKIIα Δhub (Rattus norvegicus, UniProt P11275); assay type: binding; conditions: HEK293T cells transiently expressing Δhub
# Sequence of CaMKIIβ/γ/δ subtypes; CaMKIIα Δhub (Rattus norvegicus, UniProt P11275) (P11275 1-337, stated change not applied): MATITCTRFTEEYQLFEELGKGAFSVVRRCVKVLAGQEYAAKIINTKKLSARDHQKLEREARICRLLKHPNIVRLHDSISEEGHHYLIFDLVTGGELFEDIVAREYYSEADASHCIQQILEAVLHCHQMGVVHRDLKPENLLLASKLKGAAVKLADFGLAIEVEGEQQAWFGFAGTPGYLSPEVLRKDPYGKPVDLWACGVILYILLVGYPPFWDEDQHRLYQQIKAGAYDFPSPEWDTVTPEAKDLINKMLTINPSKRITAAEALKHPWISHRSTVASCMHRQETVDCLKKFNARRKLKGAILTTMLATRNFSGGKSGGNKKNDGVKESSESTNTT
# [13] = tested on: CaMKIIα (mouse brain slices); assay: In vitro autoradiography on Camk2a and Camk2b +/+ and -/- mouse brain slices; assay type: binding
# [14] = 175 mg/kg at 3, 6, 12 h poststroke
compound,measurement,setting,value
"O=C(O)CCCO [GHB, γ-hydroxybutyrate, reference compound]",Effect on body temperature,[1],strong hypothermia
same,Ki,[2]; GABAB receptors,230 µM
same,maximum Tm increase (maximum ∆Tm),[3],13 °C
same,Effect on syntide phosphorylation by CaMKIIα,[4],no effect
"O=C(O)C1=CC(O)CC1 (stereo not drawn) [HOCPCA, 3-hydroxycyclopent-1-enecarboxylic acid]",Cell survival (LDH),[5]; 1 mM applied immediately or 30 min after Glu stimulation,did not have any effect
same,Cell death (LDH),"[5]; applied 1 h after Glu stimulus, concentration dependent (0.1 to 3 mM)",significantly reduced cell death
same,Quenching of Trp403 fluorescence,[6],not seen
same,Effect on body temperature,[1],no hypothermia
same,Affinity to native GABAB receptors,[2]; at 1 mM,no affinity; also recorded: lack affinity
same,mean recovery compared with the Glu-only condition (live/dead ratio),"[7]; Camk2a+/+ neurons, trend, not significant",18%
same,Cell survival after Glu,[7],neither tat-CN21 nor HOCPCA improved cell survival
same,Cell live/dead ratio,"[7]; FvB hippocampal cultures, 1 mM, 1 h poststimulation, 400 μM Glu",significantly increased
same,Long-term potentiation (LTP),[8],did not inhibit
same,maximum Tm increase (maximum ∆Tm),[3],15 °C
same,Effect on syntide phosphorylation by CaMKIIα,[4],no effect
same,Forelimb asymmetry in the cylinder test,[9]; [14],improvements
same,"Motor coordination, paw placement on grid-walking task",[9]; [14],improvements
same,reduction in infarct volume,"[9]; 175 mg/kg at 3, 6, and 12 h poststroke, measured 7 d poststroke, young male mice",40 to 50%
same,Transport of neuroanatomical tracer biotinylated dextran amine,"[9]; 175 mg/kg i.p., 14 days post-stroke",reversal of the stroke-induced decrease
same,"Compound action potentials (CAPs), corpus callosum","[9]; 175 mg/kg single treatment 3 h poststroke, 14 d poststroke",50 to 60 % of control
same,Treatment effect of single dose,"[9]; aged female mice, 175 mg/kg",significant treatment effects
same,Treatment effect of single dose,"[9]; young males, 90 mg/kg, 3 h poststroke",significant treatment effects
same,Thr286 autophosphorylation,[10]; Ca2+-stimulated conditions,did not affect
same,Thr286 autophosphorylation,[10]; basal conditions,did not affect
"COc1ccc(S(=O)(=O)N(CCO)c2ccccc2CN(C)C/C=C/c2ccc(Cl)cc2)cc1 [KN93, reference compound]",Thr286 autophosphorylation,[10]; basal conditions,significant inhibition
[3H]C1(O)C=C(C(=O)O)CC1 (stereo not drawn) [[3H]HOCPCA],Binding to CaMKIIβ/γ/δ subtypes,[11],no [^3H]HOCPCA binding was observed
same,Binding to CaMKIIα hub deletion mutant (Δhub),[12],complete absence
same,Binding to brain slices from Camk2a-/- mice,[13],complete lack of binding
same,"Binding to brain tissue of Camk2a+/+, Camk2b+/+ and Camk2b-/- mice",[13],intact binding
"GRKKRRQRRRKRPPKLGQIGRSKRVVIEDDR [tat-CN21, reference compound]",Cell death (LDH),[5]; tat-CN21 control (10 μM),significantly reduced cell death
same,Live/dead ratio after Glu,[7]; Camk2a+/+ neurons,significantly improved
same,Cell survival after Glu,[7],neither tat-CN21 nor HOCPCA improved cell survival
KRPPKLGQIGRSKRVVIEDDR [CN21],Effect on syntide phosphorylation by CaMKIIα,[4],concentration-dependent inhibition
